Marks after values point to notes of the source that are not given here.
Assays:
[1] = test system: CCRF-CEM (CCL-119) (T-lymphoblastic leukemia); assay: MTT cytotoxicity on CCRF-CEM cells; assay type: cell-based; settings: Homo sapiens, 24 hours
Procedure: (§1) The cytotoxic properties of the compounds were determined in vitro using the MTT method in 96-well plates (Costar, USA). […] Rat liver hepatocytes were obtained according to the method, human blood mononuclear cells - according to [23]. Fibroblast cells were obtained according to the method of [24] with some modifications. Cell cultures were subcultured into 96-well plates according to the method of [21] by adding 100 μl of nutrient medium. The CCRF-CEM suspension culture was poured into a tube, centrifuged at 800 rpm for 10 minutes, and the supernatant was discarded. […] Data obtained in 3 independent experiments were expressed as the mean value for each concentration ± standard error of the mean, relative to the control values (cells without test compounds). The cytotoxic effect of each of the studied compounds was compared with the effect of the cytostatic Cisplatin-Naprod (India), containing cisplatin as an active component. Table 1: IC50 μM value for test compounds

fibroblasts = assay: MTT cytotoxicity on fibroblasts; assay type: cell-based; settings: Fibroblast, 24 hours
Procedure: as §1

Rat liver hepatocytes = assay: MTT cytotoxicity on hepatocytes; assay type: cell-based; settings: Rattus norvegicus, Hepatocyte, 24 hours
Procedure: as §1

[2] = Acute toxicity study (LD50); settings: mouse, in vivo, ip
Procedure: (§2) We studied the acute toxicity of compound F1 in vivo. The experiments were carried out on outbred white mice of both sexes weighing 18-20 g (24 pcs.). The animals were divided into groups of 12 mice each. The compound was dissolved in DMSO and then adjusted to the desired concentration with 0.9% NaCl solution and administered intraperitoneally and subcutaneously in a dose range from 5.0 to 200.0 mg/kg. […] The maximum relative error of the applied dose was no more than 5%.
as §2, with “F2” for “F1”, “brought” for “adjusted”, “subcutaneously to animals” for “subcutaneously”, “administered” for “applied”

outbred white mice = assay: Acute toxicity study (LD50)
Procedure: as §2
as §2, with “F2” for “F1”, “brought” for “adjusted”, “subcutaneously to animals” for “subcutaneously”, “administered” for “applied”

[3] = test system: blood of patients with leukemia (combined group); assay: Hemogram of blood of patients with leukemia (combined group) after exposure; assay type: cell-based
Description: (§3) The effect of compounds F1 and F2 was studied on biological material (blood) of patients with hematological malignancies (leukemia), as well as for individual nosologies, in particular, patients with leukemia (combined group) (n=224), T-ALL (n=84), B-ALL (n=100), ALL (n=100), AML (n= 98), AML (n=94) and AML (n= 98) were studied. A total of 798 blood samples from patients with leukemia were examined.
(§4) The drugs Cytosar (Alexan) (Ebewe Pharma, Austria) and doxorubicin (Naprod, Mumbai, India) recommended by WHO for the treatment of the above oncohematological diseases were used as comparison drugs.
(§5) 5 ml of venous blood from sick and conditionally healthy individuals were collected into Vacutainer tubes with the addition of EDTA (Himedia, India).
(§6) The resulting blood was divided into aliquots of 1 ml and 10 µl (10 µg/ml) of the studied drugs (cytosar, doxorubicin, F1 and F2) were added to each tube.

[4] = test system: blood of patients with T-ALL; assay: Hemogram of blood of patients with T-ALL after exposure; assay type: cell-based
Description: as §3, §4, §5, §6

[5] = test system: blood of patients with B-ALL; assay: Hemogram of blood of patients with B-ALL after exposure; assay type: cell-based
Procedure: A total of 798 blood samples from patients with leukemia were examined.
as §4, §5, §6

[6] = test system: blood of patients with ALL; assay: Hemogram of blood of patients with ALL after exposure; assay type: cell-based
Procedure: as §3, §5, §6

[7] = test system: blood of patients with AML; assay: Hemogram of blood of patients with AML after exposure (Example 12, Table 9); assay type: cell-based
Procedure: as §4, §5, §6

[8] = test system: blood of patients with AML; assay: Hemogram of blood of patients with AML after exposure (Example 13, Table 10; also OMML); assay type: cell-based
Procedure: as §4, §5, §6

[9] = test system: blood of patients with AML; assay: Hemogram of blood of patients with AML after exposure (Example 14, Table 11); assay type: cell-based; settings: AML (Table 11); 10 µg/ml; 3 hours, 37.0°C
Description: as §3, §4, §5, §6

[10] = AML (Table 9), 10 µg/ml, 3 hours, 37.0°C
[11] = AML (Example 13), compared with doxorubicin
[12] = AML (Table 10), 10 µg/ml, 3 hours, 37.0°C

Question: What does the source list for `COc1cc2c(cc1OC)C(c1cc3c(cc1Cl)OCO3)NCC2` (centres unmarked) [Compound F2, 1-(2'-chloro-4',5'-methylenedioxyphenyl)-6,7-dimethoxy-1,2,3,4-tetrahydroisoquinoline]?
Answer: IC50 [1]: 21 µM; IC50 (fibroblasts): > 100 µM; IC50 (Rat liver hepatocytes): > 100 µM; LD50 at 168 h [2]: 220 ± 15.6 mg/kg; toxicity class (outbred white mice; classified from LD50): toxicity class 3 (moderately toxic); LD50 value, times higher than cytosar (cytarabine) (outbred white mice; relative to cytosar): 52 times; LD50 value, times higher than doxorubicin (outbred white mice; relative to doxorubicin): 20 times; Band (s/n) neutrophils ([3]; 10 µg/ml, 3 hours, 37.0°C): 1,6±0,2 %; Blasts ([3]; 10 µg/ml, 3 hours, 37.0°C): 65,2±2,8 %; Destroyed cells ([3]; 10 µg/ml, 3 hours, 37.0°C): 12,9±1,8 %; Eosinophils ([3]; 10 µg/ml, 3 hours, 37.0°C): 1,6±0,3 %; Lymphocytes ([3]; 10 µg/ml, 3 hours, 37.0°C): 12,3±1,2%; Monocytes ([3]; 10 µg/ml, 3 hours, 37.0°C): 4,7±0,7 %; Myelocytes ([3]; 10 µg/ml, 3 hours, 37.0°C): 2,5±0,6 %; Promyelocytes ([3]; 10 µg/ml, 3 hours, 37.0°C): 3,8±2,1%; Segmented (s/i) neutrophils ([3]; 10 µg/ml, 3 hours, 37.0°C): 5,5±0,9%; increase in the level of destroyed cells ([3]; compared to the control group): 2.3 fold; decrease in the content of blasts ([3]; versus Control group): 14.6%; Band (s/n) neutrophils ([4]; 10 µg/ml, 3 hours, 37.0°C): 0,8±0,2%; Blasts ([4]; 10 µg/ml, 3 hours, 37.0°C): 68,2±2,2 %; Destroyed cells ([4]; 10 µg/ml, 3 hours, 37.0°C): 16,1±1,3 A %; Eosinophils ([4]; 10 µg/ml, 3 hours, 37.0°C): 0,0±0,0%; Lymphocytes ([4]; 10 µg/ml, 3 hours, 37.0°C): 6,7±0,6*^ # %; Monocytes ([4]; 10 µg/ml, 3 hours, 37.0°C): 1,2±0,2*^ %; Myelocytes ([4]; 10 µg/ml, 3 hours, 37.0°C): 0,0±0,0%; Promyelocytes ([4]; 10 µg/ml, 3 hours, 37.0°C): 0,0±0,000%; Segmented (s/i) neutrophils ([4]; 10 µg/ml, 3 hours, 37.0°C): 7,0±1,0*^ %; increase in the percentage of destroyed cells ([4]; comparator not stated): 1.8 times; decrease in lymphocytes ([4]; compared with doxorubicin): 1.7 times; decrease in monocytes ([4]; compared with doxorubicin): 1.9 times; increase in the proportion of mature and differentiated neutrophils ([4]; comparison with the cytosar group): 2.3 times; decrease in the content of blasts [5]: 1.27 times; increase in the proportion of destroyed cells [5]: 4.9 times; Band (s/n) neutrophils ([5]; 10 µg/ml, 3 hours, 37.0°C): 1,7±0,4%; Blasts ([5]; 10 µg/ml, 3 hours, 37.0°C): 53,9±2,6 %; Destroyed cells ([5]; 10 µg/ml, 3 hours, 37.0°C): 15,2±1,8*^ %; Eosinophils ([5]; 10 µg/ml, 3 hours, 37.0°C): 0,0±0,0%; Lymphocytes ([5]; 10 µg/ml, 3 hours, 37.0°C): 14,6±2,0%; Monocytes ([5]; 10 µg/ml, 3 hours, 37.0°C): 2,8±0,9%; Myelocytes ([5]; 10 µg/ml, 3 hours, 37.0°C): 0,8±0,2%; Promyelocytes ([5]; 10 µg/ml, 3 hours, 37.0°C): 0,0±0,0%; Segmented (s/i) neutrophils ([5]; 10 µg/ml, 3 hours, 37.0°C): 11,1±2,0 %; Band (s/n) neutrophils ([6]; 10 µg/ml, 3 hours, 37.0°C): 0,7±0,2%; Blasts ([6]; 10 µg/ml, 3 hours, 37.0°C): 67,9±1,6*^ %; Destroyed cells ([6]; 10 µg/ml, 3 hours, 37.0°C): 13,2±1,4*^ # %; Eosinophils ([6]; 10 µg/ml, 3 hours, 37.0°C): 0,2±0,1%; Lymphocytes ([6]; 10 µg/ml, 3 hours, 37.0°C): 13,4±1,3%; Monocytes ([6]; 10 µg/ml, 3 hours, 37.0°C): 1,1±0,3%; Myelocytes ([6]; 10 µg/ml, 3 hours, 37.0°C): 0,0±0,0%; Promyelocytes ([6]; 10 µg/ml, 3 hours, 37.0°C): 0,0±0,0%; Segmented (s/i) neutrophils ([6]; 10 µg/ml, 3 hours, 37.0°C): 3,7±0,7 %; percentage of destroyed cells higher ([6]; compared to cytosar): 2.8 times; difference in the level of blast cells ([6]; compared with cytosar): 1.16 times; increase in the proportion of destroyed cells ([6]; in comparison with doxorubicin): 2.75 times; decrease in the percentage of blasts ([7]; AML (Example 12)): 1.2 times; increase in the level of destroyed cells ([7]; AML (Example 12)): 4.0 times; increase in the proportion of mature differentiated neutrophils ([7]; AML (Example 12)): 2.0 times; Band (s/n) neutrophils [7, 10]: 0,9±0,4%; Blasts [7, 10]: 65,6±2,4 %; Destroyed cells [7, 10]: 8,2±1,1%; Eosinophils [7, 10]: 0,8±0,5%; Lymphocytes [7, 10]: 11,5±1,8%; Monocytes [7, 10]: 4,4±0,9%; Myelocytes [7, 10]: 1,3±0,7%; Promyelocytes [7, 10]: 0,4±0,2%; Segmented (s/i) neutrophils [7, 10]: 7,0±1,1 %; decrease in the percentage of myelocytes ([8]; AML (Example 13)): 2.1 times; decrease in the proportion of blasts ([8]; AML (Example 13)): 11.7%; increase in the proportion of destroyed cells ([8]; AML (Example 13)): 2.6 times; increase in the proportion of neutrophils ([8]; AML (Example 13)): 2.3 times; proportion of destroyed cells higher ([8]; AML (Example 13), compared with Cytosar): 2.1 times; percentage of lymphocytes lower [8, 11]: 1.9 times; percentage of neutrophils lower [8, 11]: 1.7 times; percentage of myelocytes lower ([8]; AML (Example 13), relative to cytosar): 5.0 times; Band (s/n) neutrophils [8, 12]: 2,9±0,4%; Blasts [8, 12]: 51,9±2,2%; Destroyed cells [8, 12]: 16,6±1,6*^ %; Eosinophils [8, 12]: 0,5±0,2%; Lymphocytes [8, 12]: 3,2±0,8 %; Monocytes [8, 12]: 3,2±0,4 %; Myelocytes [8, 12]: 3,2±0,5 %; Promyelocytes [8, 12]: 0,0±0,0%; Segmented (s/i) neutrophils [8, 12]: 18,6±1,7 %; Band (s/n) neutrophils [9]: 1,2±0,3%; Blasts [9]: 59,1±3,3 %; Destroyed cells [9]: 19,3±1,7 %; Eosinophils [9]: 0,5±0,2%; Lymphocytes [9]: 8,2±1,1%; Monocytes [9]: 1,8±0,3%; Myelocytes [9]: 0,4±0,1%; Promyelocytes [9]: 0,0±0,0%; Segmented (s/i) neutrophils [9]: 9,6±2,5%

Reference: patent EP4506003A1, “HALOGEN DERIVATIVES OF (4´,5´- METHYLENEDIOXYPHENYL)-6,7-DIMETHOXY-1,2,3,4-TETRAHYDROISOQUINOLINE FOR USE IN THE TREATMENT OF LEUKEMIA” (S.Yu Yunusov Institute of Chemistry of Plant Substances of …, priority 2023, dated 2025)
